Measurements from patent EP1072948B1, “Thermally processed image recording material” (FUJIFILM Corporation, priority 1999, dated 2001).

Experiments:
[1] = Example 1: image storage stability 2 (developed material stored under light irradiation); conditions: 24 hours, 10,000 luces, relative humidity 50%
Method: (§1) After each thermally processed image recording material was light-exposed by a laser sensitometer (details are given below), the thermally processed image recording material was treated at 118°C for 5 seconds and then treated at 122°C for 16 seconds (heat development).
(§2) The evaluation of the image obtained was performed by using a Macbeth TD904 densitometer (visible density). The measurement results were evaluated as Dmin, sensitivity (evaluated by a relative value of a reciprocal of a ratio of exposure amounts giving a density higher than Dmin by 1.0, and the sensitivity of the thermally processed image recording material of Experiment No. 1 shown in Table 1 below was defined as 100), Dmax, and gradation (contrast) (fresh photographic properties). The contrast was expressed by a gradient of a straight line connecting the points at the densities from which the value for Dmin was subtracted, 0.5 and 1.5, with the abscissa being a logarithm of the exposure amount.

[2] = Example 1: image storage stability 1 (developed material stored in the dark); conditions: 24 hours, relative humidity 50%
Method: as §1, §2

[3] = Example 2: image storage stability 2 (developed material stored under light irradiation); conditions: 24 hours, 10,000 luces, relative humidity 50%
Method: (§3) Each light-exposed thermally processed image recording material was heat-developed by using a heat-developing apparatus as shown in Fig.1. The roller surface material of the heat development section was composed of silicone rubber, and the flat surface consisted of Teflon non-woven fabric. The heat development was performed at a transportation linear speed of 20 mm/second and a temperature of 90-110°C in the preheating section for 15 seconds (driving units of the preheating section and the heat development section were independent from each other, and speed difference as to the heat development section was adjusted to -0.5% to -1%), and 120°C for 20 seconds in the heat development section, and for 15 seconds in the gradual cooling section. The temperature precision as for the transverse direction was ±1°C.
as §2, with “0.3” for “0.5”

[4] = Example 2: image storage stability 1 (developed material stored in the dark); conditions: 24 hours, relative humidity 50%
Method: as §3
as §2, with “0.3” for “0.5”

SMILES	Image storage stability-2 (stored in light, 40°C, 50%) Dmax ([1]; Table 1, 1.6×10^-1 mol/mol-Ag)	Image storage stability-2 (stored in light, 40°C, 50%) Dmin ([1]; Table 1, 1.6×10^-1 mol/mol-Ag)	Image storage stability-1 (stored in dark, 60°C, 50%) Dmax ([2]; Table 1, 1.6×10^-1 mol/mol-Ag)	Image storage stability-1 (stored in dark, 60°C, 50%) Dmin ([2]; Table 1, 1.6×10^-1 mol/mol-Ag)	Image storage stability-2 (stored in light, 40°C, 50%) Dmax ([3]; Table 3, 8×10^-2 mol/mol-Ag)	Image storage stability-2 (stored in light, 40°C, 50%) Dmin ([3]; Table 3, 8×10^-2 mol/mol-Ag)	Image storage stability-1 (stored in dark, 60°C, 50%) Dmax ([4]; Table 3, 8×10^-2 mol/mol-Ag)	Image storage stability-1 (stored in dark, 60°C, 50%) Dmin ([4]; Table 3, 8×10^-2 mol/mol-Ag)	Image storage stability-2 (stored in light, 40°C, 50%) Dmax ([1]; Table 2, 1.6×10^-1 mol/mol-Ag)	Image storage stability-2 (stored in light, 40°C, 50%) Dmin ([1]; Table 2, 1.6×10^-1 mol/mol-Ag)	Image storage stability-1 (stored in dark, 60°C, 50%) Dmax ([2]; Table 2, 1.6×10^-1 mol/mol-Ag)	Image storage stability-1 (stored in dark, 60°C, 50%) Dmin ([2]; Table 2, 1.6×10^-1 mol/mol-Ag)	Image storage stability-2 (stored in light, 40°C, 50%) Dmax ([3]; Table 4, 8×10^-2 mol/mol-Ag)	Image storage stability-2 (stored in light, 40°C, 50%) Dmin ([3]; Table 4, 8×10^-2 mol/mol-Ag)	Image storage stability-1 (stored in dark, 60°C, 50%) Dmax ([4]; Table 4, 8×10^-2 mol/mol-Ag)	Image storage stability-1 (stored in dark, 60°C, 50%) Dmin ([4]; Table 4, 8×10^-2 mol/mol-Ag)
CCCCCCOCCN(CC)C(=O)c1cccc(S(=O)(=O)C(Br)(Br)Br)c1 [Comparative Compound 1]	2.5	0.17	2.1	0.17	3.2	0.08	2.7	0.08	–	–	–	–	–	–	–	–
CCNC(=O)c1ccccc1S(=O)(=O)C(Br)(Br)Br [Comparative Compound 3]	3.0	0.25	2.9	0.41	4.1	0.15	4.1	0.35	–	–	–	–	–	–	–	–
CCCCCCCCCCCCCCCCNC(=O)c1cccc(S(=O)(=O)C(Br)(Br)Br)c1 [Comparative Compound (1)]	–	–	–	–	–	–	–	–	2.8	0.43	2.8	0.54	3.4	0.22	3.6	0.35
O=C(c1cccc(S(=O)(=O)C(Br)(Br)Br)c1)N1CCCC1 [Comparative Compound (3)]	–	–	–	–	–	–	–	–	3.0	0.40	2.9	0.42	3.6	0.23	3.6	0.44
CCCCCCCCN(CCCCCCCC)S(=O)(=O)c1ccc(S(=O)(=O)C(Br)(Br)Br)cc1 [Comparative Compound (4)]	–	–	–	–	–	–	–	–	2.9	0.47	2.8	0.59	3.6	0.25	3.7	0.39
CCCCCCCCCCCCN(CCCCCCCCCCCC)C(=O)c1cc(S(C)(=O)=O)ccc1S(=O)(=O)C(Br)(Br)Br [Comparative Compound (5)]	–	–	–	–	–	–	–	–	2.9	0.50	2.8	0.60	3.7	0.29	3.7	0.43
CCOCCNC(=O)c1cccc(S(=O)(=O)C(Br)(Br)Br)c1 [P'-1]	–	–	–	–	–	–	–	–	3.0	0.17	3.0	0.18	4.0	0.08	3.9	0.09
CCCCOCCCNC(=O)c1cccc(S(=O)(=O)C(Br)(Br)Br)c1 [P'-15]	–	–	–	–	–	–	–	–	3.0	0.17	3.0	0.18	4.0	0.07	3.9	0.09

More lines, now with the values ahead:

Image storage stability-2 (stored in light, 40°C, 50%) Dmax ([1]; Table 1, 1.6×10^-1 mol/mol-Ag)	Image storage stability-2 (stored in light, 40°C, 50%) Dmin ([1]; Table 1, 1.6×10^-1 mol/mol-Ag)	Image storage stability-1 (stored in dark, 60°C, 50%) Dmax ([2]; Table 1, 1.6×10^-1 mol/mol-Ag)	Image storage stability-1 (stored in dark, 60°C, 50%) Dmin ([2]; Table 1, 1.6×10^-1 mol/mol-Ag)	Image storage stability-2 (stored in light, 40°C, 50%) Dmax ([3]; Table 3, 8×10^-2 mol/mol-Ag)	Image storage stability-2 (stored in light, 40°C, 50%) Dmin ([3]; Table 3, 8×10^-2 mol/mol-Ag)	Image storage stability-1 (stored in dark, 60°C, 50%) Dmax ([4]; Table 3, 8×10^-2 mol/mol-Ag)	Image storage stability-1 (stored in dark, 60°C, 50%) Dmin ([4]; Table 3, 8×10^-2 mol/mol-Ag)	Image storage stability-2 (stored in light, 40°C, 50%) Dmax ([1]; Table 2, 1.6×10^-1 mol/mol-Ag)	Image storage stability-2 (stored in light, 40°C, 50%) Dmin ([1]; Table 2, 1.6×10^-1 mol/mol-Ag)	Image storage stability-1 (stored in dark, 60°C, 50%) Dmax ([2]; Table 2, 1.6×10^-1 mol/mol-Ag)	Image storage stability-1 (stored in dark, 60°C, 50%) Dmin ([2]; Table 2, 1.6×10^-1 mol/mol-Ag)	Image storage stability-2 (stored in light, 40°C, 50%) Dmax ([3]; Table 4, 8×10^-2 mol/mol-Ag)	Image storage stability-2 (stored in light, 40°C, 50%) Dmin ([3]; Table 4, 8×10^-2 mol/mol-Ag)	Image storage stability-1 (stored in dark, 60°C, 50%) Dmax ([4]; Table 4, 8×10^-2 mol/mol-Ag)	Image storage stability-1 (stored in dark, 60°C, 50%) Dmin ([4]; Table 4, 8×10^-2 mol/mol-Ag)	SMILES
–	–	–	–	–	–	–	–	3.0	0.17	3.0	0.17	4.0	0.08	3.9	0.09	CCC(CC)NC(=O)c1cccc(S(=O)(=O)C(Br)(Br)Br)c1 [P'-18]
–	–	–	–	–	–	–	–	3.0	0.17	3.0	0.17	4.0	0.07	3.9	0.09	CCCC(C)NC(=O)c1cccc(S(=O)(=O)C(Br)(Br)Br)c1 (centres unmarked) [P'-20]
3.0	0.17	2.9	0.17	4.0	0.08	3.9	0.09	–	–	–	–	–	–	–	–	COCCCNC(=O)c1cccc(S(=O)(=O)C(Br)(Br)Br)c1 [P-11]
3.0	0.20	3.0	0.20	–	–	–	–	–	–	–	–	–	–	–	–	CCCCNS(=O)(=O)c1cccc(S(=O)(=O)C(Br)(Br)Br)c1 [P-18]
